In article PMC5268738, “A sequential multi-target Mps1 phosphorylation cascade promotes spindle checkpoint signaling” (eLife, 2017):
pKd: −log10 of the molar value. Square brackets hold non-standard residues; d marks the D form. Ends that are not written are not given here. Peptide text beside a SMILES is read from it. pT = C[C@@H](OP(=O)(O)O)[C@H](N)C(=O)O; pS = N[C@@H](COP(=O)(O)O)C(=O)O

Key:
HeLa Tet-On cells = experiment: mitotic index by flow cytometry, Bub1-depleted cells; type: cell-based, human; settings: partial Bub1 depletion, BI 2536 1 µM, nocodazole; n = 3; as shown previously (Jia et al., 2016)
Protocol: HeLa Tet-On cells were initially purchased from Clontech (Mountain View, CA), and were cultured in Dulbecco’s Modified Eagle Medium (DMEM, Invitrogen, Carlsbad, CA) supplemented with 10% fetal bovine serum and 2 mM L-glutamine. The cells were authenticated by genome sequencing and metaphase chromosome spread, and were routinely checked by 4',6-diamidino-2-phenylindole (DAPI) staining to ascertain that they were free of mycoplasma contamination. For G1/S synchronization, cells were treated with 2 mM thymidine (Sigma, St. Louis, MO) for 14–16 hr. For mitotic arrest, cells were treated with 330 nM or 1 µM nocodazole (Sigma) or 100 nM taxol (Sigma) for 12–14 hr. Other chemicals used in this study were: RO3306 (Sigma) at 20 µM, BI 2536 (Selleck Chemicals, Houston, TX) at 1 µM, MG132 (Selleck Chemicals) at 10 µM, okadaic acid (LC lab, Woburn, MA) at 500 nM, and reversine (Cayman Chemical, Ann Arbor, MI) at 1 µM.
For RNAi experiments, cells were transfected with siRNA oligonucleotides (Dharmacon, Lafayette, CO) using Lipofectamine RNAiMAX (Invitrogen) and harvested at 24–72 hr after transfection. The sequences of the siRNAs were (from 5’ to 3’): siBub1-c, […] […]
Cells were synchronized at G1/S with thymidine and released into fresh medium containing 330 nM nocodazole for 13 hr before being harvested. […] The samples were analyzed on a FACSCalibur flow cytometer (BD Biosciences). […]

[1] = target: T1, C-terminal domain (CTD) of scMad1 (Saccharomyces cerevisiae, UniProt P40957); experiment: ITC, scBub1 fragment or phospho-peptides with scMad1 CTD; type: binding; settings: 20°C, 25 mM HEPES pH 7.5, 150 mM NaCl, scMad1 20 µM in cell, scBub1 phospho-peptide or fragment 300 µM injected, read-out: Kd, dissociation constant
T1 sequence (P40957 633-749 limits assumed): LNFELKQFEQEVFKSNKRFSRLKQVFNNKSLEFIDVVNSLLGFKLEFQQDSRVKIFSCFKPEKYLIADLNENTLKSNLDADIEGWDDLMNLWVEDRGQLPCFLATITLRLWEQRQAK
Protocol: All isothermal titration calorimetry (ITC) assays were performed with a MicroCal Omega ITC200 titration calorimeter (GE Life Sciences) at 20°C. Recombinant scMad1^CTD protein or scMad1–scMad2 complexes were dialyzed into the HEPES Buffer I (25 mM HEPES, pH 7.5, 150 mM NaCl). Recombinant human Mad1^CTD protein was dialyzed into the HEPES Buffer II (25 mM HEPES, pH 7.5, 50 mM NaCl). For each titration, 300 μl of scMad1 proteins (20 µM) or human Mad1 (50 µM) were added to the calorimeter cell. The scBub1 phospho-peptides or purified scMps1-phosphorylated scBub1_449–530 fragment (300 µM) in the HEPES Buffer I or the human Bub1 phospho-peptides (500 µM) in the HEPES Buffer II were injected with an injection syringe in 19 2-μl portions. The raw data were processed and fitted with the NITPIC software package ([Keller et al., 2012]).

Bub1^ΔK–Bub3 = experiment: in vitro kinase assay on recombinant Bub1^ΔK–Bub3; type: biochemical, human; settings: 400 nM Bub1^ΔK–Bub3, 50 nM Cdk1–Cyclin B1 or 500 nM Mps1, 1 mM ATP, room temperature, 30 min; blot
Protocol: For kinase assays, 1 μM Cdc20^ΔN60, 40 μM Mad1^E–Mad2, or 400 nM Bub1^ΔK–Bub3 was incubated with 40 nM Bub1, 500 nM Mps1, and/or 50 nM Cdk1–Cyclin B1 at room temperature for 30 min in the kinase buffer (25 mM Tris-HCl, pH 7.7, 100 mM NaCl, 10 mM MgCl2, 5 mM NaF, 20 mM β-glycerophosphate, 0.1 mM Na3VO4 and 1 mM DTT) supplemented with 1 mM ATP. The reaction mixtures were stopped with the appropriate kinase inhibitors for further protein-binding assays, or quenched with the SDS loading buffer and analyzed by Coomassie blue staining or Western blotting.

APC/C^Cdc20 = APC/C^Cdc20 inhibition by MCC components (securin ubiquitination assay); type: biochemical, Xenopus APC/C, human Cdc20; settings: BubR1^N and Cdc20^ΔN60, no Bub1^ΔK–Bub3, Mad1^E–Mad2, Cdk1 or Mps1
HeLa cells = experiment: mitotic arrest by Mis12–Mad1 fusion proteins (mitotic index); type: cell-based, human; settings: no spindle poison
Protocol: Internal deletion mutants were constructed with overlapping extension polymerase chain reaction (PCR). Point mutations were introduced with QuikChange Lightening Site-Directed Mutagenesis kit (Agilent Technologies, Santa Clara, CA). All plasmids were verified by sequencing. Plasmid transfection was performed with the Effectene reagent (Qiagen, German Town, MD) according to the manufacturer’s instructions.
[…] For Plk1 inhibition, BI 2536 was added 1 hr prior to harvest. Collected cells were washed with PBS and fixed with pre-chilled 70% ethanol at −20°C overnight. After being washed with PBS, the fixed cells were permeabilized with 0.2% Triton X-100 in PBS for 20 min. Cells were then incubated with the anti-MPM2 antibody (1:100, Millipore) in PBS containing 1% BSA for 2 hr. After being washed with PBS, cells were incubated with fluorescent secondary antibodies (Invitrogen) in PBS containing 1% BSA for 30 min. After being washed with PBS, cells were stained with 20 μg/ml propidium iodide (Sigma) in PBS containing 200 μg/ml RNase (Qiagen). All staining steps were performed at room temperature. The samples were analyzed on a FACSCalibur flow cytometer (BD Biosciences). Data were processed with the FlowJo software. The mitotic index was defined as the percentage of cells that had 4N DNA content and were also positive for MPM2 staining. […]

human Mad1 CTD = experiment: in vitro pull-down of human Mad1^CTD by Bub1 peptide beads; type: binding; settings: peptides immobilized on SulfoLink resin, Coomassie
Protocol: Recombinant bait proteins or bacteria lysates containing bait proteins were incubated with the appropriate affinity beads. Bait-bound beads were then blocked with 2% fat-free milk when necessary before being mixed with 100 µl diluted prey proteins. After incubation, beads were washed and eluted with the SDS loading buffer. The bead-bound proteins were analyzed by Coomassie blue staining or Western blotting. […] In cases that synthesized peptides were used as bait, peptides were immobilized on SulfoLink resin (Thermo Scientific, Waltham, MA) according to the manufacturer’s instructions. The synthetic scBub1 peptides contained residues 449–473 of scBub1, various phospho-residues, and a cysteine at the N-terminus. All synthetic human Bub1 peptides, except the pS459 peptide, contained residue 455–477 of human Bub1, the appropriate phospho-residues, and a cysteine at the N-terminus. The Bub1 pS459 peptide contained residues 439–480, pT452/pS459, and a cysteine at the C-terminus.

CC[C@@H]1C(=O)N(C)c2cnc(Nc3ccc(C(=O)NC4CCN(C)CC4)cc3OC)nc2N1C1CCCC1 [BI 2536, reference compound]
effect of Plk1 inhibition with partial depletion of Bub1 on the spindle checkpoint (in words) (HeLa Tet-On cells): synergistically inactivated the spindle checkpoint and reduced nocodazole-triggered mitotic arrest

CC[C@H](C)[C@H](NC(=O)[C@H](C)NC(=O)[C@H](CC(=O)O)NC(=O)[C@H](CCCCN)NC(=O)[C@H](CO)NC(=O)[C@H](Cc1ccccc1)NC(=O)[C@H](C)NC(=O)[C@@H](NC(=O)[C@@H](NC(=O)[C@@H](NC(=O)[C@@H]1CCCN1C(=O)[C@H](CO)NC(=O)[C@H](CCCNC(=N)N)NC(=O)[C@H](CO)NC(=O)[C@@H](N)CS)[C@@H](C)OP(=O)(O)O)C(C)C)[C@@H](C)OP(=O)(O)O)C(=O)N[C@@H](CC(N)=O)C(=O)N[C@@H](CCC(=O)O)C(=O)N[C@H](C(=O)N[C@@H](Cc1ccccc1)C(=O)N[C@@H](CO)C(=O)N[C@@H](CCSC)C(=O)N[C@@H](Cc1ccccc1)C(=O)N[C@@H](CC(N)=O)C(=O)N[C@@H](CCC(N)=O)C(=O)N[C@@H](Cc1c[nH]cn1)C(=O)N[C@@H](Cc1ccc(O)cc1)C(=O)O)C(C)C [scBub1 pT453-pT455 peptide] (H-CSRSP[pT]V[pT]AFSKDAINEVFSMFNQHY-OH)
pKd [1]: 5.80

CC[C@H](C)[C@H](NC(=O)[C@H](C)NC(=O)[C@H](CC(=O)O)NC(=O)[C@H](CCCCN)NC(=O)[C@H](CO)NC(=O)[C@H](Cc1ccccc1)NC(=O)[C@H](C)NC(=O)[C@@H](NC(=O)[C@@H](NC(=O)[C@@H](NC(=O)[C@@H]1CCCN1C(=O)[C@H](CO)NC(=O)[C@H](CCCNC(=N)N)NC(=O)[C@H](CO)NC(=O)[C@@H](N)CS)[C@@H](C)O)C(C)C)[C@@H](C)OP(=O)(O)O)C(=O)N[C@@H](CC(N)=O)C(=O)N[C@@H](CCC(=O)O)C(=O)N[C@H](C(=O)N[C@@H](Cc1ccccc1)C(=O)N[C@@H](CO)C(=O)N[C@@H](CCSC)C(=O)N[C@@H](Cc1ccccc1)C(=O)N[C@@H](CC(N)=O)C(=O)N[C@@H](CCC(N)=O)C(=O)N[C@@H](Cc1c[nH]cn1)C(=O)N[C@@H](Cc1ccc(O)cc1)C(=O)O)C(C)C [scBub1 pT455 peptide] (H-CSRSPTV[pT]AFSKDAINEVFSMFNQHY-OH)
pKd [1]: 5.80

Cdk1: recombinant GST-Cdk1 (T14A/Y15F) co-expressed with His6-Cyclin B1 [reference compound]
phosphorylation of Bub1^ΔK–Bub3 at S459 (in words) (Bub1^ΔK–Bub3): strongly phosphorylated at S459

Mad2^Di: dimeric Mad2 separated by ion exchange chromatography
spontaneous functional MCC formation and APC/C^Cdc20 inhibition (in words) (APC/C^Cdc20): allowed the spontaneous formation of functional MCC that inhibited securin ubiquitination by APC/C^Cdc20

Mad2^Mono: monomeric Mad2, mostly the inactive O-Mad2
spontaneous functional MCC formation and APC/C^Cdc20 inhibition (in words) (APC/C^Cdc20): only showed weak APC/C^Cdc20 inhibition at very high doses

T716A: Mis12–Mad1 with T716A mutation
mitotic arrest by Mis12–Mad1 fusion protein (in words) (HeLa cells): abrogated the function of Mis12–Mad1 more strongly than simultaneously mutating the 13 sites outside of the CTD

pS459-pT461-pT464 peptide: triply phosphorylated synthetic human Bub1 peptide, residues 455–477, N-terminal cysteine (CKVQP[pS]P[pT]VH[pT]KEALGFIMNMFQA; UniProt O43683 455-477, looked up, fragment)
binding to human Mad1 CTD (in words) (human Mad1 CTD): bound more weakly to Mad1 than the pS459-pT461 peptide
